Results from patent publication US20100210649A1, “PYRIDAZINONES AND FURAN-CONTAINING COMPOUNDS” (Sloan-Kettering Institute for Cancer Research, priority 2006, published 2010).
Several values for one entry are separate records, joined by “and”; a condition that tells them apart may be missing. Identical values can stand only once. Like-named read-outs stand apart in the source and are kept apart here.

What was measured:
H1650 = experiment: Non Small Cell Lung Cancer proliferation assay (Alamar Blue reduction), H1650; format: cell-based, human; conditions: for inhibition at 10 µM: NCI-H1650, primary screening, read-out: PRIMARY HTS [%] H1650 (percentage inhibition); for inhibition at 10 µM / CONFIRMATION [%] 1650: 10 μM compound in 1% DMSO (v/v); for CONFIRMATION [%] 1650: percentage inhibition
In short: (§1)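 Proliferation after 48 h compound exposure (1% DMSO final, 37 °C) was read by Alamar Blue reduction over an additional 48 h, fluorescence at 530 nm excitation/590 nm emission. Dose-response runs seeded 250 cells/well; DMSO-only wells as high control.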

A549 = experiment: Dose response study (Alamar Blue), A549; format: cell-based; conditions: Homo sapiens, read-out: IC50 A549
Method: (§2) Dose response studies against 34 compounds from the pyridazinone and phenylfuran-carboxamide class were conducted. […] In addition, Tarceva was included in these dose response studies.
(§3) The dose response studies were done with the following standard procedure. First, the cells were counted and dispensed at 250 cells/well into 384-well microplates with compound. The cells were incubated for 48 hours at 37 C to complete treatment, and then alamar blue was added for an additional 48 hours. Finally, alamar blue reduction was measured and the data was loaded into ORIS, our data screening acquisition platform.

H820 = experiment: Dose response study (Alamar Blue), H820; format: cell-based; conditions: Homo sapiens, read-out: IC50 H820
Method: as §2, §3

H1118 = experiment: Non Small Cell Lung Cancer proliferation assay (Alamar Blue reduction), H1118; format: cell-based
Method: Non Small Cell Lung Cancer Proliferation Assay. To perform the assay, the Non Small Cell Lung Cancer lines are diluted in media and plated into 384 well microplates at a final density of 250 cells in […]. To ensure consistency and minimal pipetting error, the cells are plated using the Multidrop 384 with the following settings: Rocker Switch set at 384, Volume 45 and Column 24.
Low Controls for this assay are made by treating Non Small Cell Lung Cancer cells with 5 ul of staurosporine at 250 uM in 10% DMSO and 1% SDS. [Final concentration in this assay is 25 uM staurosporine in 1% DMSO and 0.1% SDS.]
High Controls for this assay are made by treating Non Small Cell Lung Cancer cells with 5 ul of 10% DMSO. [Final concentration in this assay is 1% DMSO].
The remaining wells of the 384 microplate may be treated with different compounds depending on the study. Important Note: All compounds for testing in this assay should be done at the final concentration of 1% DMSO.
After addition, the cells are placed in cell culture incubator at 37° C. for 48 hours for complete treatment.
After drug treatment, cytotoxicity is measured by Alamar Blue reduction. 5 μL of Alamar Blue is added to the 384 microplates using the Flexdrop.
The cells are incubated for 48 hours at 37° C. to complete the Alamar Blue reduction.
The final step in the assay is to measure the amount of Alamar Blue reduction. […] The Alamar Blue fluorescence is measured at an excitation of 530 nm and emission of 590 nm.
For the NSCLC project, the cell based assay was screened against a small molecule library of approximately 200,000 compounds. The compound library is stored in our automated robotic freezer (Biophile) at −20° C. in 100% DMSO. Compound freeze and thaw cycles are kept to a minimum. Compounds for use are diluted into the appropriate concentration and plated into 384 well microplates using our custom built low volume 384-well head tool (TPS 384, Apricot Designs Inc., CA, USA). This assay was performed on a fully automated linear track robotic platform (CRS F3 Robot System, Thermo Electron Corp., Ontario, Canada) utilizing several integrated peripherals for plate handling, liquid dispensing, and readout detection. First, non-small cell lung cancer cell lines are dispensed into 384 well microplates (Corning #3712 Tissue Culture Treated Plate, Corning, N.Y., USA) with 5 μL of test compounds at 100 uM in 10% DMSO for screening studies or […] in 10% DMSO to 50 nM in 10% DMSO for dose response studies. The microplates are then placed at 37° C. for 48 hours to complete treatment of cells with compounds. Next, 5 ul of alamar blue was added using a liquid dispenser (Flexprop Precision Dispenser, Perkin Elmer, Mass., USA) and incubated for 48 hours at 37° C. The alamar blue prompt fluorescence was measured on Victor V (Victor^3 V, Perkin Elmer, Mass., USA) and output data files were loaded into ORIS (Oncology Research Informatics System, MSKCC, NY, USA), a screening data acquisition and analysis platform.
as §3

H2030 = experiment: Non Small Cell Lung Cancer proliferation assay (Alamar Blue reduction), H2030; format: cell-based, human; conditions: for inhibition at 10 µM: NCI-H2030, primary screening, read-out: PRIMARY HTS [%] H2030 (percentage inhibition); for inhibition at 10 µM / CONFIRMATION [%] 2030: 10 μM compound in 1% DMSO (v/v); for CONFIRMATION [%] 2030: percentage inhibition
In short: as §1

H2444 = experiment: Dose response study (Alamar Blue), H2444; format: cell-based; conditions: Homo sapiens, read-out: IC50 H2444
Method: as §2, §3

H1734 = experiment: Non Small Cell Lung Cancer proliferation assay (Alamar Blue reduction), H1734; format: cell-based, human; conditions: Homo sapiens
In short: as §1

[1] = Homo sapiens, NCI-H1650, 48 h, H1650, 12 point doubling dilution 10 uM to 5 nM, 48 h treatment, alamar blue additional 48 h, read-out: IC50 H1650
[2] = Homo sapiens, NCI-H1650, phenylfuran-2-carboxamide SAR summary, read-out: IC50(uM) 1650
[3] = A549, 12 point doubling dilution 10 uM to 5 nM, 48 h treatment, alamar blue additional 48 h
[4] = NCI-H820, H820, 12 point doubling dilution 10 uM to 5 nM, 48 h treatment, alamar blue additional 48 h
[5] = Homo sapiens; H1118; 12 point doubling dilution 10 uM to 5 nM; 48 h treatment, alamar blue additional 48 h; read-out: IC50 H1118
[6] = Homo sapiens, NCI-H2030, 48 h, H2030, 12 point doubling dilution 10 uM to 5 nM, 48 h treatment, alamar blue additional 48 h, read-out: IC50 H2030
[7] = Homo sapiens, NCI-H2030, phenylfuran-2-carboxamide SAR summary, read-out: IC50(uM) 2030
[8] = NCI-H2444, H2444, 12 point doubling dilution 10 uM to 5 nM, 48 h treatment, alamar blue additional 48 h
[9] = NCI-H1734, H1734, 12 point doubling dilution 10 uM to 5 nM, 48 h treatment, alamar blue additional 48 h, read-out: IC50 H1734
[10] = Homo sapiens, NCI-H1650, dose response 10 M to 5 nM, IC50, read-out: Dose Response (uM) H1650
[11] = Homo sapiens, NCI-H2030, dose response 10 M to 5 nM, IC50, read-out: Dose Response (uM) H2030
[12] = NCI-H1734, read-out: Dose Response (uM) H1734
[13] = Homo sapiens, 48 h, read-out: IC50 H1118
[14] = NCI-H1734, 48 h, H1734, 12 point doubling dilution 10 uM to 5 nM, 48 h treatment, alamar blue additional 48 h, read-out: IC50 H1734
[15] = Homo sapiens; read-out: Dose Response (uM) H1118

Compound | IC50 (H1650; [1]) [µM] | IC50 (A549; [3]) [nM] | IC50 (H820; [4]) [nM] | IC50 (H1118; [5]) [µM] | IC50 (H2030; [6]) [µM] | IC50 (H2444; [8]) [nM] | IC50 (H1734; [9]) [µM] | IC50 (H1650; [10]) [µM] | IC50 (H2030; [11]) [µM] | IC50 (H1734; [12]) [µM] | other results
Cc1cccc(NC(=O)c2ccc([N+](=O)[O-])o2)c1 [compound 71762] | 0.63 | 1460 | 3610 | 0.38 | 0.99 | 3800 | 4.88 | – | – | – | IC50 (H1650; [2]): 0.43 µM; inhibition at 10 µM (H1650; Homo sapiens, H1650): 104%; CONFIRMATION [%] 1650 (H1650): 135% and 106%; IC50 (H1650; phenylfuran-2-carboxamide SAR summary, read-out: IC50(uM) 1650): 0.41 µM; IC50 (H2030; [7]): 1.43 µM; inhibition at 10 µM (H2030; Homo sapiens, H2030): 101%; CONFIRMATION [%] 2030 (H2030): 103%; IC50 (H2030; phenylfuran-2-carboxamide SAR summary, read-out: IC50(uM) 2030): 1.46 µM
COc1cccc(-n2ncc(Br)c(Br)c2=O)c1 [compound 267083] | 1.08 | 1070 | 200 | 0.27 | 0.26 | 280 | 1.36 | 1.06 | 0.57 | 1.31 | –
O=c1c(Cl)c(Cl)cnn1-c1ccccc1 [compound 257014] | 1.64 | – | – | – | 0.41 | – | – | 3.18 | 0.55 | – | IC50 (A549; A549, 48 h): 1680 nM; IC50 (H820; NCI-H820, 48 h): 240 nM; IC50 (H1118; [13]): 0.45 µM; IC50 (H1118; Homo sapiens, read-out: Dose Response (uM) H1118): 0.27 µM; IC50 (H2444; NCI-H2444, 48 h): 340 nM; IC50 (H1734; [14]): 2.28 µM; IC50 (H1734; NCI-H1734, dose response 10 M to 5 nM, IC50, read-out: Dose Response (uM) H1734): 4.11 µM
Cc1cc(C)cc(-n2ncc(Cl)c(Cl)c2=O)c1 [compound 257020] | 2.58 | 2870 | 450 | 0.58 | 0.57 | 400 | 2.62 | 2.1 | 0.56 | 1.83 | IC50 (H1118; [15]): 0.34 µM
Cc1ccc(NC(=O)c2ccc([N+](=O)[O-])o2)cc1 [compound 98697] | 0.6 | – | – | – | 1.18 | – | – | – | – | – | IC50 (H1650; [2]): 0.44 µM; inhibition at 10 µM (H1650; Homo sapiens, H1650): 103%; CONFIRMATION [%] 1650 (H1650): 136%; IC50 (A549; A549, 48 h): 1810 nM; IC50 (H820; NCI-H820, 48 h): 3530 nM; IC50 (H1118; [13]): 0.56 µM; IC50 (H2030; [7]): 1.06 µM; inhibition at 10 µM (H2030; Homo sapiens, H2030): 62%; CONFIRMATION [%] 2030 (H2030): 101%; IC50 (H2444; NCI-H2444, 48 h): 4790 nM; IC50 (H1734; [14]): 4.42 µM
Cc1cc(-n2ncc(Cl)c(Cl)c2=O)ccc1Br [compound 267064] | > 10 | > 10000 | 6720 | > 10 | 7.8 | 6410 | > 10 | 2.83 | 0.88 | 1.21 | –
O=c1c(Cl)c(Cl)cnn1-c1ccc(Cl)cc1Cl [compound 267077] | > 10 | > 10000 | 2680 | 3.73 | 3.55 | 4680 | > 10 | 0.56 | 1.27 | 0.52 | –
Cc1cc(-n2ncc(Cl)c(Cl)c2=O)ccc1Cl [compound 267065] | > 10 | > 10000 | > 10000 | > 10 | > 10 | 6370 | > 10 | > 10 | > 10 | > 10 | –
O=c1c(Br)c(Br)cnn1-c1ccccc1 [compound 257015] | 0.92 | 1200 | 220 | 0.37 | 0.31 | 300 | 1.62 | 1.14 | 0.39 | 0.87 | IC50 (H1118; [15]): 0.22 µM
